Measured values from ChEMBL document CHEMBL3046293, “Fungicidal Activities of -Methoxyphenylacetic Acid Derivatives” (2002).

Legend:
Format in all cases: functional
Pyricularia oryzae [1] = assay: Fungicidal activity against Magnaporthe oryzae Cav. race 003 assessed as rice blast disease control at 500 ppm treated 24 hr before inoculation by preventive manner
Botrytis cinerea [2] = assay: Fungicidal activity against Botryotinia fuckeliana assessed as cucumber gray mold disease control at 500 ppm treated 24 hr before inoculation by preventive manner
Podosphaera fuliginea [3] = assay: Fungicidal activity against Podosphaera fuliginea assessed as cucumber powdery mildew disease control at 500 ppm treated 24 hr before inoculation by preventive manner
Podosphaera fuliginea [4] = assay: Fungicidal activity against Podosphaera fuliginea assessed as cucumber powdery mildew disease control at 125 ppm treated 24 hr before inoculation by preventive manner
Podosphaera fuliginea [5] = assay: Fungicidal activity against Podosphaera fuliginea assessed as cucumber powdery mildew disease control at 31.3 ppm treated 24 hr before inoculation by preventive manner
Pyricularia oryzae [6] = assay: Fungicidal activity against Magnaporthe oryzae Cav. race 003 assessed as rice blast disease control at 125 ppm treated 24 hr before inoculation by preventive manner
Podosphaera fuliginea [7] = assay: Fungicidal activity against Podosphaera fuliginea assessed as cucumber powdery mildew disease control at 7.8 ppm treated 24 hr before inoculation by preventive manner
Botrytis cinerea [8] = assay: Fungicidal activity against Botryotinia fuckeliana assessed as cucumber gray mold disease control at 7.8 ppm treated 24 hr before inoculation by preventive manner

Row | SMILES | Activity (Pyricularia oryzae [1]) | Activity (Botrytis cinerea [2]) | Activity (Podosphaera fuliginea [3]) | Activity (Podosphaera fuliginea [4]) | Activity (Podosphaera fuliginea [5]) | Activity (Pyricularia oryzae [6]) | Activity (Podosphaera fuliginea [7]) | Activity (Botrytis cinerea [8])
1 | CNC(=O)C(OC)c1cccc(Oc2ccccc2)c1 (stereo not drawn) | <90% | <50% | <90% |  |  |  |  | 
2 | CNC(=O)C(OC)c1cccc(Oc2cccc(C)c2)c1 (stereo not drawn) | <90% | <50% | <90% |  |  |  |  | 
3 | CNC(=O)C(OC)c1cccc(Oc2ccc(C)cc2)c1 (stereo not drawn) | <90% | <50% | <90% |  |  |  |  | 
4 | CNC(=O)C(OC)c1cccc(Oc2ccc(C)c(C)c2)c1 (stereo not drawn) | <90% | <50% |  | 90% |  |  |  | 
5 | CNC(=O)C(OC)c1cccc(Oc2cc(C)cc(C)c2)c1 (stereo not drawn) | <90% | <50% |  |  | 90% |  |  | 
6 | COC(=O)C(OC)c1cccc(Oc2ccc(C)c(C)c2)c1 (stereo not drawn) | <90% | <50% | 90% |  |  |  |  | 
7 | COC(=O)C(OC)c1cccc(Oc2cc(C)cc(C)c2)c1 (stereo not drawn) | <90% | <50% | 90% |  |  |  |  | 
8 | COC(=O)C(OC)c1cccc(COc2ccccc2)c1 (stereo not drawn) | <90% | <50% |  | 90% |  |  |  | 
9 | COC(=O)C(OC)c1cccc(COc2ccccc2Cl)c1 (stereo not drawn) |  | 50% |  | 90% |  | 90% |  | 
10 | COC(=O)C(OC)c1cccc(COc2ccc(Cl)cc2)c1 (stereo not drawn) | <90% | <50% |  | 90% |  |  |  | 
11 | COC(=O)C(OC)c1cccc(COc2ccccc2C)c1 (stereo not drawn) |  | 50% |  | 90% |  | 90% |  | 
12 | COC(=O)C(OC)c1cccc(COc2cccc(C)c2)c1 (stereo not drawn) | <90% | <50% |  | 90% |  |  |  | 
13 | COC(=O)C(OC)c1cccc(COc2ccc(C)cc2)c1 (stereo not drawn) | <90% | <50% |  | 90% |  |  |  | 
14 | CCc1ccccc1OCc1cccc(C(OC)C(=O)OC)c1 (stereo not drawn) | <90% | <50% | <90% |  |  |  |  | 
15 | COC(=O)C(OC)c1cccc(COc2ccc(Cl)cc2Cl)c1 (stereo not drawn) | <90% | <50% |  |  |  |  | 90% | 
16 | COC(=O)C(OC)c1cccc(COc2cc(Cl)cc(Cl)c2)c1 (stereo not drawn) | <90% | <50% |  | 90% |  |  |  | 
17 | COC(=O)C(OC)c1cccc(COc2cccc(C)c2C)c1 (stereo not drawn) | 90% | <50% | <90% |  |  |  |  | 
18 | COC(=O)C(OC)c1cccc(COc2ccc(C)cc2C)c1 (stereo not drawn) | 90% | 50% | <90% |  |  |  |  | 
19 | COC(=O)C(OC)c1cccc(COc2cc(C)ccc2C)c1 (stereo not drawn) |  | 50% | <90% |  |  | 90% |  | 
20 | CNC(=O)C(OC)c1cccc(COc2ccccc2)c1 (stereo not drawn) | <90% | 50% |  | 90% |  |  |  | 
21 | CNC(=O)C(OC)c1cccc(COc2ccccc2F)c1 (stereo not drawn) | 90% | 50% |  |  | 90% |  |  | 
22 | CNC(=O)C(OC)c1cccc(COc2ccccc2Cl)c1 (stereo not drawn) | 90% | <50% |  |  |  |  | 90% | 
23 | CNC(=O)C(OC)c1cccc(COc2cccc(Cl)c2)c1 (stereo not drawn) | <90% | 50% |  |  | 90% |  |  | 
24 | CNC(=O)C(OC)c1cccc(COc2ccc(Cl)cc2)c1 (stereo not drawn) | <90% | <50% |  |  | 90% |  |  | 
25 | CNC(=O)C(OC)c1cccc(COc2ccccc2C)c1 (stereo not drawn) | 90% |  |  |  |  |  | 90% | 50%
26 | CNC(=O)C(OC)c1cccc(COc2cccc(C)c2)c1 (stereo not drawn) | 90% | <50% |  | 90% |  |  |  | 
